The results in this text go back to patent US20120035244A1, “PARP1 TARGETED THERAPY” (THE REGENTS OF THE UNIVERSITY OF MICHIGAN, priority 2010, published 2012).

Entries after “also recorded” stand apart in the source; their conditions may differ.

One experiment deals with VCaP. The experiment in a line: CAM xenograft tumor weight, VCaP. The class given is in vivo, chicken embryo. As to conditions: extended Olaparib treatment, P<0.05. As for the experimental part:
The CAM assay was performed as described previously (Zijlstra, A., et al., Cancer research 62, 7083-7092 (2002)). Briefly, fertilized eggs were incubated in a rotary humidified incubator at 38° C. with for 10 days. After releasing the CAM by applying mild amount of low pressure to the hole over the air sac and cutting a square 1-cm^2 window encompassing a second hole near the allantoic vein, cultured human cells that had been pre-treated with siRNA as indicated were detached by trypsinization and re-suspended in complete medium prior to implantation of 2×10^6 cells adjacent to the mesenchyme in each egg. The windows were subsequently, sealed and the eggs were returned to a stationary incubator. Cells were then treated as indicated with 40 mg/kg body weight Olaparib which was administered on day 13, 15 and 17. Day 18 embryos were sacrificed. Tumors were then excised and weighed. […] After incubation of either the metastasis or intravasation assays, the extra-embryonic tumor and CAM, as well as the embryonic liver were harvested and analyzed for the presence of tumor cells by quantitative human alu-specific PCR. […] Quantification of human cells in the extracted DNA was done as described^14. Fluorogenic TaqMan qPCR probes were applied as above, and DNA copy numbers were quantified.

Experiment [1] concerns MDA-PCa-2b-T (ETV1 positive). The experiment in a line: Human prostate cancer tissue xenograft (primagraft) MDA-PCa-2b-T. The class given is in vivo, mice. As to conditions: 40 mg/kg Olaparib, P<0.01 (day 8, 12 and 16). The protocol: Human prostate cancer specimens MDA-PCa 2b-T (ETV1 positive), MDA-PCa-133 (ERG positive) and MDA PCa 118b (ETS-negative) were obtained (Li, Z. G., et al. The Journal of clinical investigation 118, 2697-2710 (2008)). Each xenografted tumor tissue was aseptically harvested from the host mice. New recipient mice were anesthetized by injecting […] intraperitoneally for chemical restraint before tumor implantation. About 0.5 cm^3 size of the excised tumor tissue was directly implanted into subcutaneous pockets of 6- to 8-week-old male CB17 SCID mice (Charles River Laboratories) in a laminar flow sterile hood. Sub-cutaneous pocket was carefully closed by applying 1 or 2 wound clips. All mice were monitored for 24 hours after implantation procedure for any apparent physiologic disturbances or missing wound clips. Olaparib (40 mg/Kg body weight) treatment was started after 72 hours. […] Body weight was also monitored weekly during the course of the study.

The subject of another experiment is T-ALL cell lines. As to the kind of experiment: T-ALL cell lines: neutral COMET assays and soft agar colony formation. The class given is cell-based. As to conditions: with or without 10 μM Olaparib for 48 hours (COMET); soft agar colony formation. The protocol: The effect of PARP1 inhibitors on T-ALL cell lines was assayed using Western blot analysis of several T-ALL cell lines comparing total ERG expression levels. In addition, neutral COMET assays were performed on a panel of T-ALL cell lines. RWPE was used as an ETS negative control and VCaP cells were used for comparison to an ETS positive model. Cells were treated with or without 10 μM Olaparib for 48 hours as indicated. Soft agar colony formation was performed on cells treated with or without Olaparib as indicated. All experiments were run in triplicate. Error bars are standard error of the mean.

Regarding `O=C(c1cc(Cc2n[nH]c(=O)c3ccccc23)ccc1F)N1CCN(C(=O)C2CC2)CC1` [Olaparib, 4-[3-(4-Cyclopropanecarbonylpiperazine-1-carbonyl)-4-fluorobenzyl]-2H-phthalazin-1-one], in the experiment with VCaP, the “tumor size (weight) on CAM” value is listed as “significantly smaller”. Also, the primagraft growth result in experiment [1] is on record as “inhibited the growth”. Further, in the experiment on T-ALL cell lines, the “sensitivity of T-ALL cell lines” value was “sensitive to PARP1 inhibition; also recorded: sensitive to PARP inhibition”.
